# Source: patent US20030118651A1, “Bio-compatible means for controlled drug delivery to tissue and method of use” (priority 2001, published 2003)
# Assay type: physicochemical
# Conditions: pH 7.4
# Description: The ORC-active agent combinations of example 2 and 3 can be suspended in neutral buffers at pH 7.4 at 37° C. to simulate body conditions for the purpose of studying the release of the drug in the buffer (in vitro). The test samples released Marcaine in the buffer while degrading. The ORC matrix is expected to degrade completely in 3-5 days if needed, degradation can be accelerated (terminal samples) by adding sodium bicarbonate base to the buffer solution. More particularly, for example, water bath is pre-heated to 37° C. Test samples of the ORC-Marcaine are cut into small pieces and the samples (in the range of 0.05g-01 g) are weighed and placed in labeled vials. The desired amount of buffer (e.g., 100, 50, 25 or 10 times, by weight, of the test sample) is added. For terminal samples, sufficient sodium bicarbonate is added to make a 0.15 M solution. The vials are placed in the pre-heated water bath for the desired period of time (approximately 10 min-120 hours).
substance,measurement,value
oxidized regenerated cellulose [ORC matrix],time to complete degradation,3 to 5 days
